Measured values published in US12403168B1, “Method for producing a plant-based extract composition having the effect of enhancing nutrition and immunity” (priority 2024, dated 2025).

What was measured:
Format in all cases: in vivo
male (Swiss albino) mice [1] = experiment: Relative weight of organs: liver, spleen, and thymus; conditions: CY (+) mice, 10th day after cyclophosphamide 150 mg/kg i.p.; composition 200 100 mg/kg/day, levamisole 25 mg/kg oral
Description: (§1) Test subjects: the experiment was performed on healthy adult male (Swiss albino) mice, 5-6 weeks old, weighing 25±2 grams. They were nurtured to stabilize for 1 week before conducting the experiment at room temperature (27° C.-28° C.). They were fed with synthetic pellets for mice, and the drinking water was tap water.
(§2) Test sample: the composition 200 which is obtained from the example 1, and the control sample used distilled water.
(§3) Male (Swiss albino) mice were immunodeficient by intraperitoneally administering a single dose of cyclophosphamide (150 mg/kg body weight) on the first day and then orally administering the test samples continuously for 5 days.
(§4) The experiment for immune-enhancing of the composition 200 by arrangement total of 60 male mice was used for experimental (23-25 g) divided into six treatments listed in Table 5 below.
The relative weights of the organs were calculated using the following formula:
(§5) [formula] • wherein Pcq is the weight of the organ; Pct is the body weight of the mouse at the time of survey. 3) Leukocyte Count and Percentage of Leukocyte Types; • Collected tail vein blood from mice on the 5th day after CY injection. […] On the 14th day, sensitization was induced by tail vein injection with ovalbumin at a dose of 0.5 mg/kg mouse body weight. […] Measure the volume of the mouse paw at 4 hours (V1) and 24 hours (V2) after the second ovalbumin injection. The left paw that was not injected was used as the reference (Vo). Calculate the percentage of mouse paw edema using the formula: […]

male (Swiss albino) mice [2] = experiment: Leukocyte count and percentage of leukocyte types; conditions: CY (+) mice, 5th day after CY injection 150 mg/kg i.p.; composition 200 100 mg/kg/day, levamisole 25 mg/kg oral
Description: as §1, §2, §3, §4, §5

male (Swiss albino) mice [3] = experiment: Cellular immune response (delayed hypersensitivity), ovalbumin mouse paw edema; conditions: CY (+) mice, cyclophosphamide 150 mg/kg i.p., composition 200 100 mg/kg/day, levamisole 25 mg/kg oral
Description: as §1, §2, §3, §4
[formula] • wherein Pcq is the weight of the organ; Pct is the body weight of the mouse at the time of survey. 3) Leukocyte Count and Percentage of Leukocyte Types; • Collected tail vein blood from mice on the 5th day after CY injection. […] On the 14th day, sensitization was induced by tail vein injection with ovalbumin at a dose of 0.5 mg/kg mouse body weight. […] Measure the volume of the mouse paw at 4 hours (V1) and 24 hours (V2) after the second ovalbumin injection. The left paw that was not injected was used as the reference (Vo). […]

In the case of c1ccc([C@H]2CN3CCSC3=N2)cc1 [levamisole], the “relative weight of liver” value (male (Swiss albino) mice [1]) was 5.074 ± 0.189 g %, the “relative weight of spleen” value (male (Swiss albino) mice [1]) was 0.343 ± 0.031 g % and the “relative weight of thymus” value (male (Swiss albino) mice [1]) was 0.073 ± 0.013 g %. For the same compound, the “% Lymphocyte” value (male (Swiss albino) mice [2]) was 59.56 ± 4.42%, the “% Monocyte” value (male (Swiss albino) mice [2]) was 14.06 ± 3.64% and the “% Neutrophil” value (male (Swiss albino) mice [2]) was 10.81 ± 1.18%. The “% V4h, percentage of the mouse paw edema after 4 hours” value (male (Swiss albino) mice [3]; 4 hours after second ovalbumin injection) was 81.27 ± 7.52% and the “% V24 h, percentage of the mouse paw edema after 24 hours” value (male (Swiss albino) mice [3]; 24 hours after second ovalbumin injection) was 38.28 ± 7.12%.
